According to patent EP0705591A2, “Cyclic amidocarboxy surfactants, synthesis and use thereof” (STEPAN COMPANY, priority 1989, dated 1991):

Columns and labels:
[1] = Solubility in various solvents (vehicles); format: physicochemical; set-up: key: I - INSOLUBLE; S - SOLUBLE; details: 1% actives
Experimental: (§1) Sodium N-octadecylphthalamate, 1% actives, was evaluated for solubility in various solvents and under cold storage (4°C) and freeze-thaw conditions.

[2] = Cold storage and freeze-thaw stability of solutions; format: physicochemical; set-up: key: P - PASS; details: 1% actives; for STABILITY FREEZE THAW: 3 freezing/thawing cycles; for STABILITY COLD STORAGE: 24 hours at 4 °C
Experimental: as §1

[3] = Thermal stability followed by IR spectroscopy; format: physicochemical
Experimental: Thermal stability studies were conducted with neat (100% actives) sample of ammonium N-dodecylphthalamate mulled on sodium chloride plates. […]

[4] = Emulsification in foodstuffs; details: about 1% by weight, substituted for egg yolk
Experimental: Sodium N-octadecylphthalamate was added to a standard cup-cake recipe at actives levels of 0% (control), 1%, 2%, 3%, 4%, and 5%. The N-octadecylphthalamate was admixed into a typical batter as a partial replacement for the shortening, margarine or butter called for in the recipe, baked at a uniform temperature (about 176°C) and time (about 25 minutes). […] A mayonnaise formulation containing about 1% by weight, based on a 100% total weight of formulation, of sodium N-octadecylphthalamate was prepared, with the N-octadecylphthalamate being substituted for egg yolk in a given recipe. […] A dog food was prepared by admixing about 200g of "Generic" beef-flavored dog food with 3g of 100% actives sodium N-octadecylphthalamate. Samples of this dog food were exposed to various temperatures (i.e., 0°C, 43°C and 50°C).

CCCCCCCCCCCCCCCCCCNC(=O)c1ccccc1C(=O)[O-].[Na+] [Sodium N-octadecylphthalamate, Sodium N-Octadecylphthalamate]
APPEARANCE 24 HOURS @ RT^0 AFTER HEAT ([1]; vehicle AMMONYX^R LO): S | APPEARANCE 25^0C ([1]; vehicle AMMONYX^R LO): S | APPEARANCE 50^0C ([1]; vehicle AMMONYX^R LO): S | APPEARANCE 24 HOURS @ RT^0 AFTER HEAT ([1]; vehicle AMPHOSOL^R): S | APPEARANCE 25^0C ([1]; vehicle AMPHOSOL^R): I | APPEARANCE 50^0C ([1]; vehicle AMPHOSOL^R): S | APPEARANCE 24 HOURS @ RT^0 AFTER HEAT ([1]; vehicle MAKON^R 10): S | APPEARANCE 25^0C ([1]; vehicle MAKON^R 10): I | APPEARANCE 50^0C ([1]; vehicle MAKON^R 10): I | APPEARANCE 24 HOURS @ RT^0 AFTER HEAT ([1]; vehicle NINOL^R 40-CO): S | APPEARANCE 25^0C ([1]; vehicle NINOL^R 40-CO): I | APPEARANCE 50^0C ([1]; vehicle NINOL^R 40-CO): S | APPEARANCE 24 HOURS @ RT^0 AFTER HEAT ([1]; vehicle STEPANATE^R): I | APPEARANCE 25^0C ([1]; vehicle STEPANATE^R): I | APPEARANCE 50^0C ([1]; vehicle STEPANATE^R): I | STABILITY FREEZE THAW ([2]; vehicle AMMONYX^R LO): P | STABILITY COLD STORAGE ([2]; vehicle AMMONYX^R LO): P | STABILITY FREEZE THAW ([2]; vehicle AMPHOSOL^R): P | STABILITY COLD STORAGE ([2]; vehicle AMPHOSOL^R): P | STABILITY FREEZE THAW ([2]; vehicle MAKON^R 10): P | STABILITY COLD STORAGE ([2]; vehicle MAKON^R 10): P | STABILITY FREEZE THAW ([2]; vehicle NINOL^R 40-CO): P | STABILITY COLD STORAGE ([2]; vehicle NINOL^R 40-CO): P | imidation ([3]; 3.5 hours at 150°C): only a very small degree of imidation | imidation ([3]; 64 hours at 150°C): significant formation of N-octadecylphthalimide | mayonnaise emulsion stability [4]: excellent stability
